Here are results for 36 molecules from BindingDB's records for doi:10.7270/Q2NZ862K (Nmmlsc, 2007).

The target of this test is T1, fMet-Leu-Phe receptor (Homo sapiens, UniProt P21462).
T1 sequence (P21462 whole entry): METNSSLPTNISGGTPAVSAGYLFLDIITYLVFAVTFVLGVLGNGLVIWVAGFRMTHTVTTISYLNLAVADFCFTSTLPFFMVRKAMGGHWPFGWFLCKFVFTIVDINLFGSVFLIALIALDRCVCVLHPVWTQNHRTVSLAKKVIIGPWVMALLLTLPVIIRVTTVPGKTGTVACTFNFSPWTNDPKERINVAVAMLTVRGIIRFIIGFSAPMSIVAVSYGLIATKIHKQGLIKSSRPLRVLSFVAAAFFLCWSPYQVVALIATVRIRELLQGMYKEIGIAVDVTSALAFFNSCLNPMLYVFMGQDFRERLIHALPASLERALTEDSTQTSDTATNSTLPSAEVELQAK
As to the kind of experiment: FPR ligands, dose response (AID 519).
As a reminder, the Ki is a measure of affinity in units of concentration, obtained from inhibition or displacement. A lower Ki goes with tighter binding. For `Cc1ccc(C2C(C(=O)c3ccc(Br)cc3)C(=O)C(=O)N2Cc2ccco2)o1` (stereo unspecified) [(4Z)-4-[(4-bromophenyl)-hydroxy-methylene]-1-(2-furfuryl)-5-(5-methyl-2-furyl)pyrrolidine-2,3-quinone], the Ki was greater than 43.7 µM. On to `COc1cc(C2C(C(=O)c3ccc(C)o3)C(=O)C(=O)N2CCc2ccccc2)ccc1O` (stereo unspecified) [2-(3-methoxy-4-oxidanyl-phenyl)-3-(5-methylfuran-2-yl)carbonyl-4-oxidanyl-1-(2-phenylethyl)-2H-pyrrol-5-one], for which the Ki is 12.9 µM. As for `COc1ccc(C2C(C(=O)c3cccs3)C(=O)C(=O)N2c2nnc(C)s2)cc1OC` (stereo unspecified) [2-(3,4-dimethoxyphenyl)-1-(5-methyl-1,3,4-thiadiazol-2-yl)-4-oxidanyl-3-thiophen-2-ylcarbonyl-2H-pyrrol-5-one], the Ki is greater than 43.7 µM. In turn, `CC1=C(C(=O)OC(C)C)[C@]2(C(=O)N(CC(N)=O)c3ccccc32)C(C#N)C(=N)O1` (stereo partly drawn) [(3R)-6'-amino-1-(2-amino-2-keto-ethyl)-5'-cyano-2-keto-2'-methyl-spiro[indoline-3,4'-pyran]-3'-carboxylic acid isopropyl ester] gave a Ki greater than 43.7 µM. With `CCCOc1ccc(C2C(C(=O)c3ccc(C)o3)C(=O)C(=O)N2Cc2cccnc2)cc1` (stereo unspecified) [3-(5-methylfuran-2-yl)carbonyl-4-oxidanyl-2-(4-propoxyphenyl)-1-(pyridin-3-ylmethyl)-2H-pyrrol-5-one], the Ki worked out at 27.9 µM.

Molecule `O=C1C(=O)N(c2ncccn2)C(c2ccc(Cl)c(Cl)c2)C1C(=O)c1ccco1` (stereo unspecified) [2-(3,4-dichlorophenyl)-3-(furan-2-carbonyl)-4-hydroxy-1-pyrimidin-2-yl-2H-pyrrol-5-one] yielded a Ki greater than 43.7 µM.

For `CCCOc1ccc(C2C(C(=O)c3ccco3)C(=O)C(=O)N2CCCn2ccnc2)cc1` (stereo unspecified) [3-(furan-2-carbonyl)-4-hydroxy-1-(3-imidazol-1-ylpropyl)-2-(4-propoxyphenyl)-2H-pyrrol-5-one], the Ki was greater than 43.7 µM.

For `COCCN1C(=O)C(=O)C(C(=O)c2ccco2)C1c1cccc(Oc2ccccc2)c1` (stereo unspecified) [3-(furan-2-carbonyl)-4-hydroxy-1-(2-methoxyethyl)-2-(3-phenoxyphenyl)-2H-pyrrol-5-one], the Ki was 36.7 µM. `C=CCN1C(=O)C2(c3ccccc31)C(C(=O)c1ccc3c(c1)OCCO3)C(=O)C(=O)N2CCCOC` (stereo unspecified) [(4'E)-1-allyl-4'-[2,3-dihydro-1,4-benzodioxin-6-yl(hydroxy)methylene]-1'-(3-methoxypropyl)spiro[indoline-3,5'-pyrrolidine]-2,2',3'-trione] returned a Ki greater than 43.7 µM. `CSCCC1c2c(-c3cccs3)n[nH]c2OC(=N)C1C#N` (stereo unspecified) [6-azanyl-4-(2-methylsulfanylethyl)-3-thiophen-2-yl-2,4-dihydropyrano[2,3-c]pyrazole-5-carbonitrile] registered a Ki greater than 43.7 µM. The molecule `Cc1ccc(C(=O)C2C(=O)C(=O)N(c3cc(C)on3)C2c2cccc(Br)c2)cc1` (stereo unspecified) [(4E)-5-(3-bromophenyl)-1-(5-methyl-1,2-oxazol-3-yl)-4-[(4-methylphenyl)-oxidanyl-methylidene]pyrrolidine-2,3-dione] displayed a Ki greater than 43.7 µM. The molecule `COC(=O)Cc1n[nH]c2c1C(C1C=CCCC1)C(C#N)C(=N)O2` (stereo unspecified) [2-[6-amino-5-cyano-4-(1-cyclohex-2-enyl)-2,4-dihydropyrano[2,3-c]pyrazol-3-yl]acetic acid methyl ester] gave an inhibitory constant (Ki) greater than 43.7 µM. The molecule `O=C1C(=O)N(c2ncccn2)C(c2cccc(Cl)c2)C1C(=O)c1ccco1` (stereo unspecified) [2-(3-chlorophenyl)-3-(furan-2-carbonyl)-4-hydroxy-1-pyrimidin-2-yl-2H-pyrrol-5-one] gave a Ki greater than 43.7 µM.

Regarding `CCOc1cccc(C(=O)C2C(=O)C(=O)N(CCOC)C2c2ccc(C)o2)c1` (stereo unspecified) [(4Z)-4-[(3-ethoxyphenyl)-hydroxymethylidene]-1-(2-methoxyethyl)-5-(5-methyl-2-furanyl)pyrrolidine-2,3-dione], the inhibitory constant (Ki) came out at 8.8 µM. `Cc1nc2c(C)cccn2c1C(=O)C1C(=O)C(=O)N(CCN2CCOCC2)C1c1cccs1` (stereo unspecified) [(4E)-4-[(2,8-dimethyl-3-imidazo[1,2-a]pyridinyl)-hydroxymethylidene]-1-[2-(4-morpholinyl)ethyl]-5-thiophen-2-ylpyrrolidine-2,3-dione] returned a Ki greater than 43.7 µM. Then `COc1cccc2cc(C(=O)C3C(=O)C(=O)N(Cc4ccco4)C3c3cccnc3)oc12` (stereo unspecified) [1-(2-furanylmethyl)-4-hydroxy-3-[(7-methoxy-2-benzofuranyl)-oxomethyl]-2-(3-pyridinyl)-2H-pyrrol-5-one], with greater than 43.7 µM; and `COC(=O)c1ccc(C2C(C(=O)c3ccc(OC)cc3)C(=O)C(=O)N2Cc2ccco2)cc1` (stereo unspecified) [4-[(3Z)-1-(2-furanylmethyl)-3-[hydroxy-(4-methoxyphenyl)methylidene]-4,5-dioxo-2-pyrrolidinyl]benzoic acid methyl ester], with 28.1 µM. Molecule `CCOc1ccc(C2C(C(=O)c3ccco3)C(=O)C(=O)N2Cc2cccnc2)cc1` (stereo unspecified) [2-(4-ethoxyphenyl)-3-(furan-2-carbonyl)-4-hydroxy-1-(pyridin-3-ylmethyl)-2H-pyrrol-5-one] yielded a Ki of 10 µM.

Molecule `Cc1nc(C)c(C(=O)C2C(=O)C(=O)N(CCCn3ccnc3)C2c2ccc(Cl)cc2)s1` (stereo unspecified) [2-(4-chlorophenyl)-3-(2,4-dimethyl-1,3-thiazole-5-carbonyl)-4-hydroxy-1-(3-imidazol-1-ylpropyl)-2H-pyrrol-5-one] came in with a Ki greater than 43.7 µM. For `Cc1ccc(C2C(C(=O)c3ccc(Cl)cc3)C(=O)C(=O)N2CC2CCCO2)o1` (stereo unspecified) [(4Z)-4-[(4-chlorophenyl)-hydroxy-methylene]-5-(5-methyl-2-furyl)-1-(tetrahydrofurfuryl)pyrrolidine-2,3-quinone], the Ki was found to be 7.6 µM. In the case of `COCCCN1C(=O)C(=O)C(C(=O)c2ccc(OC)cc2C)C1c1cccnc1` (stereo unspecified) [(4E)-4-[(4-methoxy-2-methyl-phenyl)-oxidanyl-methylidene]-1-(3-methoxypropyl)-5-pyridin-3-yl-pyrrolidine-2,3-dione], the Ki is greater than 43.7 µM. Regarding `O=C1C(=O)N(CCc2ccccc2)C(c2cccnc2)C1C(=O)c1ccco1` (stereo unspecified) [3-(furan-2-carbonyl)-4-hydroxy-1-(2-phenylethyl)-2-pyridin-3-yl-2H-pyrrol-5-one], the inhibitory constant (Ki) is greater than 43.7 µM. As to `O=C1CCCC(=O)C1C(C#Cc1ccccc1)C1C(=O)CCCC1=O` [3-hydroxy-2-[1-(2-hydroxy-6-keto-cyclohexen-1-yl)-3-phenyl-prop-2-ynyl]cyclohex-2-en-1-one], the Ki is greater than 43.7 µM.

As to `O=C1C(=O)N(Cc2ccccc2)C(c2ccco2)C1C(=O)c1ccco1` (stereo unspecified) [1-Benzyl-4-(furan-2-carbonyl)-5-furan-2-yl-3-hydroxy-1,5-dihydro-pyrrol-2-one], the Ki came out at 8.1 µM. As for `CC1=NC(C)=C(C#N)C(c2ccc3ncccc3c2)C1C#N` (stereo unspecified), the Ki was greater than 43.7 µM. `O=C1C(=O)N(Cc2ccccc2)C(c2cccnc2)C1C(=O)c1ccco1` (stereo unspecified) [1-Benzyl-4-(furan-2-carbonyl)-3-hydroxy-5-pyridin-3-yl-1,5-dihydro-pyrrol-2-one]: the inhibition constant Ki was determined as 20 µM.

Turning to `C=CCOc1ccc(C2C(C(=O)c3cccs3)C(=O)C(=O)N2c2nnc(C)s2)cc1` (stereo unspecified) [1-(5-methyl-1,3,4-thiadiazol-2-yl)-4-oxidanyl-2-(4-prop-2-enoxyphenyl)-3-thiophen-2-ylcarbonyl-2H-pyrrol-5-one], the Ki is 26.5 µM. Molecule `CCCOc1ccc(C2C(C(=O)c3ccc(C)o3)C(=O)C(=O)N2CCCn2ccnc2)cc1` (stereo unspecified) [1-(3-imidazol-1-ylpropyl)-3-(5-methylfuran-2-yl)carbonyl-4-oxidanyl-2-(4-propoxyphenyl)-2H-pyrrol-5-one] came in with a Ki of 9 µM.

`COc1cc(C2C(C(=O)c3ccc(C)o3)C(=O)C(=O)N2Cc2cccnc2)ccc1O` (stereo unspecified) [2-(3-methoxy-4-oxidanyl-phenyl)-3-(5-methylfuran-2-yl)carbonyl-4-oxidanyl-1-(pyridin-3-ylmethyl)-2H-pyrrol-5-one] gave a Ki greater than 43.7 µM.

With `COCCCN1C(=O)C(=O)C(C(=O)c2ccccc2)C1c1ccc2c(c1)OCO2` (stereo unspecified) [(4E)-5-(1,3-benzodioxol-5-yl)-1-(3-methoxypropyl)-4-[oxidanyl(phenyl)methylidene]pyrrolidine-2,3-dione], the affinity, expressed as Ki, was 19.4 µM.

In turn, `COc1ccc(C2C(C(=O)c3ccco3)C(=O)C(=O)N2Cc2cccnc2)cc1OC` (stereo unspecified) [2-(3,4-dimethoxyphenyl)-3-(furan-2-carbonyl)-4-hydroxy-1-(pyridin-3-ylmethyl)-2H-pyrrol-5-one] registered a Ki greater than 43.7 µM. In turn, `O=C1C(=O)N(CC2CCCO2)C(c2cccnc2)C1C(=O)c1ccco1` (stereo unspecified) [3-(furan-2-carbonyl)-4-hydroxy-1-(oxolan-2-ylmethyl)-2-pyridin-3-yl-2H-pyrrol-5-one] returned a Ki of 35.9 µM. Then `COC(=O)c1[nH]c(C)c(C(=O)C2C(=O)C(=O)N(CCN3CCOCC3)C2c2cccnc2)c1C` (stereo unspecified) [4-[(E)-hydroxy-[1-[2-(4-morpholinyl)ethyl]-4,5-dioxo-2-(3-pyridinyl)-3-pyrrolidinylidene]methyl]-3,5-dimethyl-1H-pyrrole-2-carboxylic acid methyl ester], with 13.6 µM; and `COc1cc(C2C(C(=O)c3ccc4c(c3)CC(C)O4)C(=O)C(=O)N2CCCn2ccnc2)ccc1O` (stereo unspecified) [(4E)-1-(3-imidazol-1-ylpropyl)-5-(3-methoxy-4-oxidanyl-phenyl)-4-[(2-methyl-2,3-dihydro-1-benzofuran-5-yl)-oxidanyl-methylidene]pyrrolidine-2,3-dione], with 37.6 µM; and `O=C1C(=O)N(Cc2ccco2)C(c2ccccc2)C1C(=O)c1cccs1` (stereo unspecified) [1-(2-furanylmethyl)-4-hydroxy-3-[oxo(thiophen-2-yl)methyl]-2-phenyl-2H-pyrrol-5-one], with 23 µM.

For `O=C1C(=O)N(CCOCCO)C(c2cccs2)C1C(=O)c1cccs1` (stereo unspecified) [1-[2-(2-hydroxyethyloxy)ethyl]-4-oxidanyl-2-thiophen-2-yl-3-thiophen-2-ylcarbonyl-2H-pyrrol-5-one], the Ki turned out to be 14 µM.
